Measured values from patent US20080132466A1, “Blood Cholesterol Reducing Oral Composition” (priority 2005, published 2008).

Test system: Wister-ST male rats
Experiment: Total plasma cholesterol lowering effect of DFA and isoflavone in combination, rats fed for 19 days
Type: in vivo
Conditions: 1.5% in isoflavone-containing feed
Text: A total plasma cholesterol lowering effect was studied using DFA and an isoflavone in combination.
After preliminary feeding 21 Wister-ST male rats (6 weeks of age) a non-isoflavone feed for 3 days, the animals were divided into 3 groups (each n=7) by a body weight stratification procedure and were individually fed for 19 days a basal feed containing 0.25% food product supplemented with 40% isoflavone (basal diet group), a feed in which cellulose in the basal feed was replaced with 1.5% (final) DFA III (DFA III group), and a feed in which cellulose in the basal feed was replaced with 1.5% (final) fructooligosaccharide (FOS group), as shown in Table 1. On the 20th day, blood samples were taken from the abdominal aorta to obtain plasma by centrifugation and the total plasma cholesterol was measured using an automatic analyzer (DRI-CHEM 3500, Fuji Film Medical).
In the table, figures with different alphabets, a and b, denote that there is a significant difference between the figures. […] The level of HDL cholesterol was slightly low in the DFA III group; however, the differences between the groups were not significant.

OC[C@H]1O[C@@]2(CO[C@]3(CO)O[C@H](CO)[C@@H](O)[C@@H]3O2)[C@@H](O)[C@@H]1O [DFA III, difructose anhydride]
level of HDL cholesterol (in words) (differences between groups not significant): slightly low
total serum cholesterol level compared to the group fed an isoflavone alone (in words) (p=0.051 (Sheffe) basal diet vs DFA III): tended to be lowered
